Assay results from patent US20240392250A1, “HIGH-THROUGHPUT SELECTION AND FABRICATION OF BIOMATERIAL-ENCAPSULATED CELL MASS AND USES THEREOF” (BioArchitec Group Limited, priority 2022, published 2024).

Tested on: HT-29 spheroids encapsulated BECM
Test: Drug response of HT-29 spheroid BECMs by CELLTITER GLO 3D cell viability assay
Format: cell-based
Settings: biomaterial-encapsulated HT-29 cancer cell spheroids; Osimertinib 0, 2, 4 and 8 μM; 72 hrs at 37° C.; n=10; FIG. 7
Description: Commercially available 3D cell viability assay, CELLTITER GLO (Promega Corp.), was used to determine the cell viability of the BECMs.

## C=CC(=O)Nc1cc(Nc2nccc(-c3cn(C)c4ccccc34)n2)c(OC)cc1N(C)CCN(C)C [Osimertinib]
  cell viability of the BECMs (dose-response): a typical 3D cell culture viability dose-response was obtained
